According to patent US20250319640A1, “ACTIVE AND/OR INTELLIGENT PACKAGING MATERIALS CONTAINING RADICAL SCAVENGING LIGANDS” (CORNELL UNIVERSITY, priority 2022, published 2025):

What was measured:
[1] = system: E. coli ATCC strain no. 25922; test: Bacterial growth inhibition assay (modified JIS Z2801: 2000); type: cell-based
Text: (§1) The Japanese Industrial Standard (JIS) Z2801: 2000 method was slightly modified to analyze antibacterial activity of treated films against food-borne pathogenic bacteria (Association JS., “Antimicrobial products: Test for Antimicrobial Activity and Efficacy,” Japanese Industrial Standard JIS Z 2801 (2000), which is hereby incorporated by reference its entirety). Briefly, a culture of E. coli ATCC strain no. 25922 and a culture of L. monocytogenes from a food isolate were stored in 20% glycerol at −80° C. until use. The L. monocytogenes strain was obtained from the Cornell Food Safety Laboratory Bacterial Strains Collection as FSL C1-0053 and originally isolated from a finished ready-to-eat dairy food product. The cultures were streaked on tryptic soy agar (TSA) and incubated at 37° C. for E. coli and 30° C. L. monocytogenes for 24 hours. An isolated colony from each plate was used to inoculate 12 mL of tryptic soy broth (TSB), which was incubated with shaking for 24 hours at 37° C. A 100 μL aliquot of each culture was used to inoculate 50 mL TSB, which was incubated with shaking for 24 hours at 37° C. to achieve a cell density of 10^9 CFU/mL, which was confirmed by plate count on TSA. Each culture was diluted to reach a starting concentration of 10^5 CFU/mL, also confirmed by plate count on TSA. Treated films were cut into 5×5 cm^2 squares and stored in sterile conditions after the ethanol wash described in the synthesis step. A 0.4 mL aliquot of each 10^5 CFU/mL culture was placed on the treated films and covered with a 4×4 cm^2 sterile PP film to create a sandwich. The PP cover was lightly pressed down with sterile tweezers to distribute the inoculum across the treated film and the sandwich was placed in a Petri dish. The Petri dish was placed in an airtight box containing paper towels saturated with 100 mL of filtered water to maintain a humid environment. The entire apparatus was incubated at 37° C. for 24 hours. After incubation, 10 mL of phosphate buffered saline (PBS, pH 7.4) solution was pipetted into each Petri dish and well mixed to disassemble the sandwich and dilute the inoculated broth. An aliquot was taken from each Petri dish and serially diluted with PBS buffer. A 100 μL aliquot of the appropriate dilution was plated in duplicate on TSA and incubated for 24 hours at 37° C. Plates with 30-300 CFU were counted, and the average plate count of the duplicate plates was recorded. Plate counts for treated films were subtracted from the average plate count of the control to determine inhibition of bacterial growth. The assay was performed on triplicate coupons from two independently extruded batches, totaling 6 replicates per treatment.
(§2) To determine the antimicrobial performance of free curcumin, the assay was repeated with curcumin powder added to the starting inoculum. Curcumin powder was first completely dissolved in ethanol to prepare 2 mg/mL and 0.2 mg/mL stock solutions. Stock solutions were diluted 10× in TSB to final concentrations of 200 μg/mL and 20 μg/mL curcumin, which was then inoculated to a 10^5 CFU/mL starting concentration of either E. coli or L. monocytogenes, confirmed by plate count. The procedure was repeated by replacing the curcumin stock solutions with absolute ethanol (10% v/v in TSB) to quantify any growth inhibition due to ethanol. […]

[2] = system: L. monocytogenes FSL C1-0053; test: as above; type: cell-based
Text: as §1, §2

E. coli = conditions: against E. coli, previous studies; cited from earlier work
[3] = printed as pH 7.8; cited from earlier work
[4] = cited from earlier work

COc1cc(/C=C/C(=O)CC(=O)/C=C/c2ccc(O)c(OC)c2)ccc1O [curcumin]
antibacterial function of free curcumin ([1]; 20 μg/mL curcumin in TSB): did not display any antibacterial function
inhibition of bacterial growth compared to control ([1]; 10^5 CFU/mL inoculum, 37° C., 24 hours): poor bacterial inhibition
antibacterial function of free curcumin ([2]; 20 μg/mL curcumin in TSB, L. monocytogenes): did not display any antibacterial function
inhibition of L. monocytogenes by free curcumin ([2]; 200 μg/mL curcumin, partially fell out of solution in TSB): 1.63±0.83 log (CFU/mL)
inhibition of bacterial growth compared to control ([2]; L. monocytogenes, 10^5 CFU/mL inoculum, 37° C., 24 hours): poor bacterial inhibition
minimum inhibitory concentration (MIC) (E. coli): 100 to 200 µg/mL
pKa of the enolic hydrogen [3]: 7.8
water solubility [4]: low
